Measurements: US10590078B2, “Sodium channel blockers” (Daewoong Pharmaceutical Co., Ltd., priority 2015, dated 2020)

Molecular target: human sodium ion channel 1.7 (hNav1.7) (Homo sapiens, UniProt Q15858)
Experiment: Blocking effect against sodium ion channel Nav1.7, IonFlux16 auto patch clamp in hNav1.7 HEK293 cells
Format: cell-based
Conditions: hNav1.7 HEK293 cells; inhibition of peak current after 50 seconds treatment; eight concentrations; read-out: IC50

Chain of human sodium ion channel 1.7 (hNav1.7) (Q15858 whole entry): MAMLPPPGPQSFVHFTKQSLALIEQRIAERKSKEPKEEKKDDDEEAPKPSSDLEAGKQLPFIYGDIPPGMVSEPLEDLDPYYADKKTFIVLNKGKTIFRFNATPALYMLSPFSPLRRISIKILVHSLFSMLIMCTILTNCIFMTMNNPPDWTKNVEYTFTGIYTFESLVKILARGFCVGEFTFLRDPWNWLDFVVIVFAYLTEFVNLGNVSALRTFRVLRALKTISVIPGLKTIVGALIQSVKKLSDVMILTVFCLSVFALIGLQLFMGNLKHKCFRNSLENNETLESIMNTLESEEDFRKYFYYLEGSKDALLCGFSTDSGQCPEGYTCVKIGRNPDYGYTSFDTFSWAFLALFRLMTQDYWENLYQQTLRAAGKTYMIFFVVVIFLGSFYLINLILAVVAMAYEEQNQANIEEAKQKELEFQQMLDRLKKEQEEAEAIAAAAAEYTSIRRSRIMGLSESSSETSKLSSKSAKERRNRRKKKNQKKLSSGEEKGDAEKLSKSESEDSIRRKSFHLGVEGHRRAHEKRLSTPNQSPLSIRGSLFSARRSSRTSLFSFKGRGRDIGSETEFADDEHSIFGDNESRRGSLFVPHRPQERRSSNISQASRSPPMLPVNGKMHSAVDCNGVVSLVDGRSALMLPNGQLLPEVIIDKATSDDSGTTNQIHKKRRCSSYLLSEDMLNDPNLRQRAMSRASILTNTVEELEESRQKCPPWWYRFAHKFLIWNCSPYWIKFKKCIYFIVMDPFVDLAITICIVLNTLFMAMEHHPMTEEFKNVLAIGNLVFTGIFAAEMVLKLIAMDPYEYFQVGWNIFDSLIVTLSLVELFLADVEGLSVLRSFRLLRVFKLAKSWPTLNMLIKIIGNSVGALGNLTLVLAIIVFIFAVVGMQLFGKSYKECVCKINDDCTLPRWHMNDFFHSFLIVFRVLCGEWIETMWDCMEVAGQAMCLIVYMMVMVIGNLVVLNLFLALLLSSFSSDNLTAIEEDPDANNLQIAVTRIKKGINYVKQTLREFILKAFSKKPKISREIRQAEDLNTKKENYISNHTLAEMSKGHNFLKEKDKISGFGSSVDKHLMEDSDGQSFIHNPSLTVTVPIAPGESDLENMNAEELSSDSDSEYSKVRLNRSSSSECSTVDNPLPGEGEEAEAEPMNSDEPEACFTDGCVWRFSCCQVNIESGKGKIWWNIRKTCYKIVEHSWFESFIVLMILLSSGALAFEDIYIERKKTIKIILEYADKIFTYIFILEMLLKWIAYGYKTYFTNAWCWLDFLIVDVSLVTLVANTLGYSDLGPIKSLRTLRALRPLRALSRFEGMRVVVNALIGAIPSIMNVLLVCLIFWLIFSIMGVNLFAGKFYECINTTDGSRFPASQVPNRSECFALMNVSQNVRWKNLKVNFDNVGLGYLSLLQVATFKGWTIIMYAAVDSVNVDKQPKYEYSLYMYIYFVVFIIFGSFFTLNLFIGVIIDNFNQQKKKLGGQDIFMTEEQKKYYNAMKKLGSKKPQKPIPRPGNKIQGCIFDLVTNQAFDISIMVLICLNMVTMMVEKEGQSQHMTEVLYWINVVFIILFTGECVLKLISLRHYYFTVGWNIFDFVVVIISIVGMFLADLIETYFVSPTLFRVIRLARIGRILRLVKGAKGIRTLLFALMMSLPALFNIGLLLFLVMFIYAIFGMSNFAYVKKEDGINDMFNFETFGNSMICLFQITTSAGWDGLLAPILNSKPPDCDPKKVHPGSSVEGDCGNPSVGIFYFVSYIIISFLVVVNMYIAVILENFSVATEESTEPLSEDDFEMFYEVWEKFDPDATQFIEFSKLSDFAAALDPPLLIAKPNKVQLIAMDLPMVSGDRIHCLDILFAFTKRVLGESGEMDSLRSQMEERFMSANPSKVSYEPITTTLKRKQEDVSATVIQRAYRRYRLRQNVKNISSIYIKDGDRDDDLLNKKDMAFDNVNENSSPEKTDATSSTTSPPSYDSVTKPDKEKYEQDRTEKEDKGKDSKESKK

Row | SMILES | IC50 [nM]
1 | COc1ccccc1-c1nn(-c2ccc(C(=O)NS(C)(=O)=O)cc2F)c2ccc(Cl)cc12 [Example 117, 4-(5-chloro-3-(2-methoxyphenyl)-1H-indazol-1-yl)-3-fluoro-N-(methylsulfonyl)benzamide] | 640
2 | COc1ccc(-c2nn(-c3ccc(C(=O)NS(C)(=O)=O)cc3F)c3ccc(Cl)cc23)cc1 [Example 118, 4-(5-chloro-3-(4-methoxyphenyl)-1H-indazol-1-yl)-3-fluoro-N-(methylsulfonyl)benzamide] | 360
3 | CS(=O)(=O)NC(=O)c1ccc(-n2nc(-c3cccc(C#N)c3)c3cc(Cl)ccc32)c(F)c1 [Example 119, 4-(5-chloro-3-(3-cyanophenyl)-1H-indazol-1-yl)-3-fluoro-N-(methylsulfonyl)benzamide] | 1790
4 | CS(=O)(=O)NC(=O)c1ccc(-n2nc(-c3ccc(C#N)cc3)c3cc(Cl)ccc32)c(F)c1 [Example 120, 4-(5-chloro-3-(4-cyanophenyl)-1H-indazol-1-yl)-3-fluoro-N-(methylsulfonyl)benzamide] | 3890
5 | CS(=O)(=O)NC(=O)c1ccc(-n2nc(-c3cccc(C(F)(F)F)c3)c3cc(Cl)ccc32)c(F)c1 [Example 121, 4-(5-chloro-3-(3-(trifluoromethyl)phenyl)-1H-indazol-1-yl)-3-fluoro-N-(methylsulfonyl)benzamide] | 1090
6 | CS(=O)(=O)NC(=O)c1ccc(-n2nc(-c3ccc(C(F)(F)F)cc3)c3cc(Cl)ccc32)c(F)c1 [Example 122, 4-(5-chloro-3-(4-(trifluoromethyl)phenyl)-1H-indazol-1-yl)-3-fluoro-N-(methylsulfonyl)benzamide] | 310
7 | CS(=O)(=O)NC(=O)c1ccc(-n2nc(-c3ccc(F)cc3)c3cc(Cl)ccc32)c(F)c1 [Example 123, 4-(5-chloro-3-(4-fluorophenyl)-1H-indazol-1-yl)-3-fluoro-N-(methylsulfonyl)benzamide] | 350
8 | CS(=O)(=O)NC(=O)c1ccc(-n2nc(-c3ccccc3F)c3cc(Cl)ccc32)c(F)c1 [Example 124, 4-(5-chloro-3-(2-fluorophenyl)-1H-indazol-1-yl)-3-fluoro-N-(methylsulfonyl)benzamide] | 290
9 | CS(=O)(=O)NC(=O)c1ccc(-n2nc(-c3cccc(F)c3)c3cc(Cl)ccc32)c(F)c1 [Example 125, 4-(5-chloro-3-(3-fluorophenyl)-1H-indazol-1-yl)-3-fluoro-N-(methylsulfonyl)benzamide] | 560
10 | CS(=O)(=O)NC(=O)c1ccc(-n2nc(-c3ccc(Cl)cc3)c3cc(Cl)ccc32)c(F)c1 [Example 126, 4-(5-chloro-3-(4-chlorophenyl)-1H-indazol-1-yl)-3-fluoro-N-(methylsulfonyl)benzamide] | 990
11 | CS(=O)(=O)NC(=O)c1ccc(-n2nc(-c3ccccc3)c3cc(Cl)ccc32)cc1F [Example 127, 4-(5-chloro-3-phenyl-1H-indazol-1-yl)-2-fluoro-N-(methylsulfonyl)benzamide] | 3940
12 | CS(=O)(=O)NC(=O)c1ccc(-n2nc(-c3ccc(Cl)cc3F)c3cc(Cl)ccc32)nc1 [Example 128, 6-(5-chloro-3-(4-chloro-2-fluorophenyl)-1H-indazol-1-yl)-N-(methylsulfonyl)nicotinamide] | 1330
13 | CC(C)(O)C#Cc1nn(-c2cc(F)c(C(=O)NS(C)(=O)=O)cc2Cl)c2ccc(Cl)cc12 [Example 129, 5-chloro-4-(5-chloro-3-(3-hydroxy-3-methylbut-1-yn-1-yl)-1H-indazol-1-yl)-2-fluoro-N-(methylsulfonyl)benzamide] | 1740
14 | Cn1cc(-c2nn(-c3cc(F)c(C(=O)NS(C)(=O)=O)cc3Cl)c3ccc(Cl)cc23)ccc1=O [Example 130, 5-chloro-4-(5-chloro-3-(1-methyl-6-oxo-1,6-dihydropyridin-3-yl)-1H-indazol-1-yl)-2-fluoro-N-(methylsulfonyl)benzamide] | > 10000
15 | CC(C)(C)OC(=O)N1CC=C(c2nn(-c3cc(F)c(C(=O)NS(C)(=O)=O)cc3Cl)c3ccc(Cl)cc23)CC1 [Example 131, tert-butyl 4-(5-chloro-1-(2-chloro-5-fluoro-4-((methylsulfonyl)carbamoyl)phenyl)-1H-indazol-3-yl)-3,6-dihydropyridine-1(2H)-carboxylate] | 2600
16 | CS(=O)(=O)NC(=O)c1cc(Cl)c(-n2nc(C3=CCNCC3)c3cc(Cl)ccc32)cc1F [Example 132, 5-chloro-4-(5-chloro-3-(1,2,3,6-tetrahydropyridin-4-yl)-1H-indazol-1-yl)-2-fluoro-N-(methylsulfonyl)benzamide] | > 10000
17 | CS(=O)(=O)NC(=O)c1cc(Cl)c(-n2nc(/C=C/c3ccccc3)c3cc(Cl)ccc32)cc1F [Example 133, (E)-5-chloro-4-(5-chloro-3-styryl-1H-indazol-1-yl)-2-fluoro-N-(methylsulfonyl)benzamide] | 120
18 | CS(=O)(=O)NC(=O)c1cc(Cl)c(-n2nc(/C=C/c3ccccn3)c3cc(Cl)ccc32)cc1F [Example 134, (E)-5-chloro-4-(5-chloro-3-(2-(pyridin-2-yl)vinyl)-1H-indazol-1-yl)-2-fluoro-N-(methylsulfonyl)benzamide] | 2170
19 | CS(=O)(=O)NC(=O)c1cc(Cl)c(-n2nc(/C=C/c3ccccc3F)c3cc(Cl)ccc32)cc1F [Example 135, (E)-5-chloro-4-(5-chloro-3-(2-fluorostyryl)-1H-indazol-1-yl)-2-fluoro-N-(methylsulfonyl)benzamide] | 370
20 | CS(=O)(=O)NC(=O)c1cc(Cl)c(-n2nc(/C=C/c3ccccc3Cl)c3cc(Cl)ccc32)cc1F [Example 136, (E)-5-chloro-4-(5-chloro-3-(2-chlorostyryl)-1H-indazol-1-yl)-2-fluoro-N-(methylsulfonyl)benzamide] | 1010
21 | CS(=O)(=O)NC(=O)c1cc(Cl)c(-n2nc(/C=C/c3ccc(C(F)(F)F)cc3)c3cc(Cl)ccc32)cc1F [Example 137, (E)-5-chloro-4-(5-chloro-3-(4-(trifluoromethyl)styryl)-1H-indazol-1-yl)-2-fluoro-N-(methylsulfonyl)benzamide] | 680
22 | CN(C)S(=O)(=O)NC(=O)c1cc(Cl)c(-n2nc(-c3ccc(Cl)cc3F)c3cc(Cl)ccc32)cc1F [Example 138, 5-chloro-4-(5-chloro-3-(4-chloro-2-fluorophenyl)-1H-indazol-1-yl)-N—(N,N-dimethylsulfamoyl)-2-fluorobenzamide] | 100
23 | CN(C(=O)c1cc(Cl)c(-n2nc(-c3ccc(Cl)cc3F)c3cc(Cl)ccc32)cc1F)S(C)(=O)=O [Example 139, 5-chloro-4-(5-chloro-3-(4-chloro-2-fluorophenyl)-1H-indazol-1-yl)-2-fluoro-N-methyl-N-(methylsulfonyl)benzamide] | 1430
24 | CS(=O)(=O)N(Cc1ccc2ccccc2c1)C(=O)c1cc(Cl)c(-n2nc(Cl)c3cc(O)ccc32)cc1F [Example 140, 5-chloro-4-(3-chloro-5-hydroxy-1H-indazol-1-yl)-2-fluoro-N-(methylsulfonyl)-N-(naphthalen-2-ylmethyl)benzamide] | > 10000
25 | CS(=O)(=O)N(Cc1ccc(F)cc1)C(=O)c1cc(Cl)c(-n2nc(Cl)c3cc(O)ccc32)cc1F [Example 141, 5-chloro-4-(3-chloro-5-hydroxy-1H-indazol-1-yl)-2-fluoro-N-(4-fluorobenzyl)-N-(methylsulfonyl)benzamide] | > 10000
